Tested on: MDA-MB-231 complex spheroids, growth inhibition
Test: Anticancer human tumor MDA-MB-231 cell line growth inhibition [Asc];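 also: spheroids exposed to compounds for 7 days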
Details: for IC50: curve of first compound; for viability, T/C: stronger effect = lower value
Outline: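 Complex solid-tumor spheroids incorporating human endothelial and mesenchymal stem cells received single agents or combinations over half-log dilution ranges anchored to clinical Cmax.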

[1] = second compound 0.03 µM, first compound 0.0316 µM
[2] = second compound 0.03 µM, first compound 0.1 µM
[3] = second compound 0.03 µM, first compound 0.316 µM
[4] = second compound 0.03 µM, first compound 1 µM
[5] = second compound 0.0949 µM, first compound 0.0316 µM
[6] = second compound 0.0949 µM, first compound 0.1 µM
[7] = second compound 0.0949 µM, first compound 0.316 µM
[8] = second compound 0.0949 µM, first compound 1 µM
[9] = second compound 0.3 µM, first compound 0.0316 µM
[10] = second compound 0.3 µM, first compound 0.1 µM
[11] = second compound 0.3 µM, first compound 0.316 µM
[12] = second compound 0.3 µM, first compound 1 µM
[13] = second compound 0.949 µM, first compound 0.0316 µM
[14] = second compound 0.949 µM, first compound 0.1 µM
[15] = second compound 0.949 µM, first compound 0.316 µM
[16] = second compound 0.949 µM, first compound 1 µM
[17] = second compound 3 µM, first compound 0.0316 µM
[18] = second compound 3 µM, first compound 0.1 µM
[19] = second compound 3 µM, first compound 0.316 µM
[20] = second compound 3 µM, first compound 1 µM

| SMILES | IC50 (second compound 0.03 µM) | IC50 (second compound 0.0949 µM) | IC50 (second compound 0.3 µM) | IC50 (second compound 0.949 µM) | IC50 (second compound 3 µM) | viability, T/C [1] | viability, T/C [2] | viability, T/C [3] | viability, T/C [4] | viability, T/C [5] | viability, T/C [6] | viability, T/C [7] | viability, T/C [8] | viability, T/C [9] | viability, T/C [10] | viability, T/C [11] | viability, T/C [12] | viability, T/C [13] | viability, T/C [14] | viability, T/C [15] | other results |
| --- | --- | --- | --- | --- | --- | --- | --- | --- | --- | --- | --- | --- | --- | --- | --- | --- | --- | --- | --- | --- | --- |
| CNC(C)C(=O)NC1CN(S(=O)(=O)c2cccc(S(=O)(=O)N3CCC4CCC(C(=O)NC(c5ccccc5)c5ccccc5)N4C(=O)C(NC(=O)C(C)NC)C3)c2)CCC2CCC(C(=O)NC(c3ccccc3)c3ccccc3)N2C1=O (stereo not given) + CCN1C(C(=O)NC23CCC(C(=O)O)(CC2)CC3)C(c2cccc(Cl)c2F)C2(C(=O)Nc3cc(Cl)ccc32)C12CCCCC2 | < 0.00316 µM | < 0.00316 µM | < 0.00316 µM | < 0.00316 µM | < 0.00316 µM | 1.57% | 1.22% | 1.14% | 0.97% | 1.66% | 1.78% | 1.27% | 0.74% | 2.08% | 2.17% | 0.84% | 1.46% | 2.37% | 0.77% | 0.84% | viability, T/C (second compound 0.03 µM, first compound 0.00316 µM): 6.71%; viability, T/C (second compound 0.03 µM, first compound 0.01 µM): 1.67%; viability, T/C (second compound 0.0949 µM, first compound 0.00316 µM): 5.03%; viability, T/C (second compound 0.0949 µM, first compound 0.01 µM): 1.98%; viability, T/C (second compound 0.3 µM, first compound 0.00316 µM): 5.55%; viability, T/C (second compound 0.3 µM, first compound 0.01 µM): 3.61%; viability, T/C (second compound 0.949 µM, first compound 0.00316 µM): 3.82%; viability, T/C (second compound 0.949 µM, first compound 0.01 µM): 2.39%; viability, T/C [16]: 0.96%; viability, T/C (second compound 3 µM, first compound 0.00316 µM): 2.23%; viability, T/C (second compound 3 µM, first compound 0.01 µM): 1%; viability, T/C [17]: 1.14%; viability, T/C [18]: 0.61%; viability, T/C [19]: 0.68%; viability, T/C [20]: 0.75% |
| O=C(c1cc(Cc2n[nH]c(=O)c3ccccc23)ccc1F)N1CCN(C(=O)C2CC2)CC1 + CCN1C(C(=O)NC23CCC(C(=O)O)(CC2)CC3)C(c2cccc(Cl)c2F)C2(C(=O)Nc3cc(Cl)ccc32)C12CCCCC2 | > 10 µM | > 10 µM | > 10 µM | > 10 µM | > 10 µM | 99.1% | 93.9% | 93.8% | 88.2% | 106% | 104% | 98.8% | 99.5% | 103% | 103% | 100% | 97.5% | 102% | 107% | 103% | viability, T/C (second compound 0.03 µM, first compound 3.16 µM): 88.8%; viability, T/C (second compound 0.03 µM, first compound 10 µM): 73.8%; viability, T/C (second compound 0.0949 µM, first compound 3.16 µM): 90.2%; viability, T/C (second compound 0.0949 µM, first compound 10 µM): 77.3%; viability, T/C (second compound 0.3 µM, first compound 3.16 µM): 93%; viability, T/C (second compound 0.3 µM, first compound 10 µM): 80.3%; viability, T/C [16]: 101%; viability, T/C (second compound 0.949 µM, first compound 3.16 µM): 97.9%; viability, T/C (second compound 0.949 µM, first compound 10 µM): 80.7%; viability, T/C [17]: 99.1%; viability, T/C [18]: 103%; viability, T/C [19]: 94.8%; viability, T/C [20]: 93.4%; viability, T/C (second compound 3 µM, first compound 3.16 µM): 86.7%; viability, T/C (second compound 3 µM, first compound 10 µM): 77.8% |

From PubChem BioAssay AID1963443 (Molecular Pharmacology Branch, DTP, NCI, 2024)
